Drawing on ChEMBL document CHEMBL1201862, “PubChem BioAssay data set” (2004), this text covers AC50 and IC50 for 4 compounds.

Activity calls are given as the source filed them.

A short description of assay [1]: MITF: Counter assay: A375 proliferation Measured in Cell-Based System Using Plate Reader - 2084-03_Inhibitor_Dose_DryPowder_Activity_Set8. The assay is classed as functional. The following applies: A-375.
A short description of assay [2]: MITF Orthogonal Assay: MALME3 CTG Assay Measured in Cell-Based System Using Plate Reader - 2084-04_Inhibitor_Dose_DryPowder_Activity_Set6. The following applies: MALME-3. In kind it is functional.
Assay [3] is described as follows: melanocyte viability loss, MITF-dependent cells, cell-based, plate reader, dry powder, cytotoxicity control, dose response (AID 651920). The assay is classed as functional.
A short description of assay [4]: MITF Orthogonal Assay: SK-MEL-5 CTG Assay Measured in Cell-Based System Using Plate Reader - 2084-02_Inhibitor_Dose_DryPowder_Activity_Set7. In kind it is functional.
The nature of assay [5]: growth inhibition of MALME3 cells – cell-based, CellTiter-Glo luminescence, dry powder, set 5, orthogonal assay for MITF inhibitor project, dose response (AID 651584). The following applies: MALME-3. The assay is classed as functional.
A short description of assay [6]: inhibitors of TRPM1-promoter reporter in SK-MEL-5 – cell-based, luciferase, dry powder, set 8, MITF inhibitor project, dose response (AID 624430). The assay is classed as functional.
Assay [7] in a line: inhibitors of TRPM1-promoter reporter in SK-MEL-5 – cell-based, luciferase, dry powder, set 9, MITF inhibitor project, dose response (AID 651588). The assay is classed as functional.
The nature of assay [8]: cytotoxicity in MITF-independent A375 cells – cell-based, CellTiter-Glo luminescence, dry powder, set 9, counter-screen for MITF modulator project, dose response (AID 651591). The assay is classed as functional. The following applies: A-375.
The nature of assay [9]: growth inhibition of SK-MEL-5 melanoma cells – cell-based, CellTiter-Glo luminescence, dry powder, set 8, orthogonal assay for MITF inhibitor project, dose response (AID 651586). In kind it is functional. For orientation: ATP-based viability assays read luminescence as a measure of living cells.
Assay [10] is described as follows: OVCAR-3 cell viability loss – plate reader, dry powder samples, PAX8 inhibitor project, dose response (AID 743044). The assay is classed as functional, cell-based.
For a further assay, the target named is Paired box protein Pax-8 (Homo sapiens, UniProt Q06710). The assay is described as follows: PAX8 transcriptional activity inhibition in RMG-I – RMG-I cells, luciferase, cherry-pick, dose response (AID 687027).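 Note: luciferase reporter driven by Pax8 target thyroperoxidase promoter measured by SteadyGlo luminescence.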 In kind it is functional, cell-based.
A short description of assay [11]: OVCAR8 cell viability loss – plate reader, dry powder samples, PAX8 project, dose response (AID 743197). In kind it is functional, cell-based. The following applies: OVCAR-8.
Assay [12] is described as follows: A2780 cell killing – plate reader, dry powder samples, cytotoxicity control, dose response (AID 743046). The assay is classed as functional, cell-based.
Assay [13] can be described thus: viability loss in HEK293 cells – cell-based, plate reader, cherry-picked samples, cytotoxicity control, dose response (AID 743446). The assay is classed as functional.
A short description of assay [14]: IGROV1 cell killing – plate reader, dry powder samples, PAX8 inhibitor project, dose response (AID 743043). The assay is classed as functional, cell-based. The following applies: IGROV-1.
Assay [15] is described as follows: PAX8-dependent cell viability loss – plate reader, dry powder, dose response (AID 743049). The assay is classed as functional, cell-based.
Assay [16] can be described thus: toxicity toward immortalized ovarian surface epithelium – cell-based, plate reader, dry powder samples, cytotoxicity control for PAX8 inhibitor project, dose response (AID 743045). The assay is classed as functional.
A short description of assay [17]: A549 cell cytotoxicity, dose response, cytotoxicity control, plate reader, cherry-pick, antagonist series (AID 743412). In kind it is functional, cell-based.
The nature of assay [18]: COV434 cell viability loss – plate reader, dry powder, SA7, cytotoxicity control for PAX8 inhibitor project, dose response (AID 743145). The assay is classed as functional, cell-based.
Assay [19] is described as follows: PAX5 cellular inhibition readout – cell-based, plate reader, dry powder samples, selectivity assay for PAX8 inhibitor project, dose response (AID 743047).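 Note: HEK293 cells carrying a Pax5 driven CD19 promoter luciferase reporter; potency of inhibitors that lower reporter luminescence.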 In kind it is functional.
Assay [20] can be described thus: CMV-driven luciferase expression suppression in HEK293 – cell-based, luminescence, dry powder, counter-screen for Pax8 inhibitor project, dose response (AID 743020). The assay is classed as functional.
Assay [21] can be described thus: inhibitors acting on PAX2 in cells – cell-based, plate reader, dry powder samples, selectivity assay for PAX8 inhibitor project, dose response (AID 743048).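 Note: HEK293 cells carrying a WT1 promoter luciferase reporter driven by expressed Pax2; potency is for inhibition of Pax2 driven reporter signal.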 In kind it is functional.
A short description of assay [22]: toxicity toward HepG2 liver cells – cell-based, plate reader, cherry-pick, antagonist series, cytotoxicity control, dose response (AID 743416). The assay is classed as functional.
The nature of assay [23]: OV-90 cell viability loss – plate reader, dry powder, SA8, PAX8 inhibitor project, dose response (AID 743149). The assay is classed as functional, cell-based.
A short description of assay [24]: blockers of bursicon-stimulated LGR2 cAMP reporter – cell-based, HEK293, CRE-luciferase reporter, cherry pick, set 2, dose response (AID 743343).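 Note: transfected cells were stimulated with diluted bursicon conditioned medium after compound addition.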 In kind it is functional. (In general: A reporter such as luciferase makes a cellular process visible.)
Assay [25] in a line: blockade of melanocortin 4 receptor signaling – cell-based, plate reader, cherry pick, counter-screen for LGR2 antagonist project, dose response (AID 743444).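 Note: transfected HEK 293 cells stimulated with alpha-MSH peptide; potency of inhibitors of the alpha-MSH evoked signal.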 In kind it is functional. In general terms: The purpose of a counterscreen is to sort out artefacts and off-target activity.
Assay [26] can be described thus: COV362 cell viability loss – plate reader, dry powder, SA12, cytotoxicity control for PAX8 inhibitor project, dose response (AID 743144). The assay is classed as functional, cell-based.
Another assay deals with T1, Caspase-3 (Homo sapiens, UniProt P42574).
T1 sequence (P42574 whole entry): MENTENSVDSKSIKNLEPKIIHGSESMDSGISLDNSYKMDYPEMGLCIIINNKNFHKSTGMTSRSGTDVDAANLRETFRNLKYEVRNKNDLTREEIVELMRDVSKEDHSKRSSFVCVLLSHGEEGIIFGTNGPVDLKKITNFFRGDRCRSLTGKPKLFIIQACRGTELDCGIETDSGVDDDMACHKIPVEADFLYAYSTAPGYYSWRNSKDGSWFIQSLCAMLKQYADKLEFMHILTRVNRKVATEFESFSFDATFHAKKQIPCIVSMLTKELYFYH
The assay is classed as functional.

Assay [27] deals with T2, Sentrin-specific protease 7 (Homo sapiens, UniProt Q9BQF6).
T2 sequence (Q9BQF6 whole entry): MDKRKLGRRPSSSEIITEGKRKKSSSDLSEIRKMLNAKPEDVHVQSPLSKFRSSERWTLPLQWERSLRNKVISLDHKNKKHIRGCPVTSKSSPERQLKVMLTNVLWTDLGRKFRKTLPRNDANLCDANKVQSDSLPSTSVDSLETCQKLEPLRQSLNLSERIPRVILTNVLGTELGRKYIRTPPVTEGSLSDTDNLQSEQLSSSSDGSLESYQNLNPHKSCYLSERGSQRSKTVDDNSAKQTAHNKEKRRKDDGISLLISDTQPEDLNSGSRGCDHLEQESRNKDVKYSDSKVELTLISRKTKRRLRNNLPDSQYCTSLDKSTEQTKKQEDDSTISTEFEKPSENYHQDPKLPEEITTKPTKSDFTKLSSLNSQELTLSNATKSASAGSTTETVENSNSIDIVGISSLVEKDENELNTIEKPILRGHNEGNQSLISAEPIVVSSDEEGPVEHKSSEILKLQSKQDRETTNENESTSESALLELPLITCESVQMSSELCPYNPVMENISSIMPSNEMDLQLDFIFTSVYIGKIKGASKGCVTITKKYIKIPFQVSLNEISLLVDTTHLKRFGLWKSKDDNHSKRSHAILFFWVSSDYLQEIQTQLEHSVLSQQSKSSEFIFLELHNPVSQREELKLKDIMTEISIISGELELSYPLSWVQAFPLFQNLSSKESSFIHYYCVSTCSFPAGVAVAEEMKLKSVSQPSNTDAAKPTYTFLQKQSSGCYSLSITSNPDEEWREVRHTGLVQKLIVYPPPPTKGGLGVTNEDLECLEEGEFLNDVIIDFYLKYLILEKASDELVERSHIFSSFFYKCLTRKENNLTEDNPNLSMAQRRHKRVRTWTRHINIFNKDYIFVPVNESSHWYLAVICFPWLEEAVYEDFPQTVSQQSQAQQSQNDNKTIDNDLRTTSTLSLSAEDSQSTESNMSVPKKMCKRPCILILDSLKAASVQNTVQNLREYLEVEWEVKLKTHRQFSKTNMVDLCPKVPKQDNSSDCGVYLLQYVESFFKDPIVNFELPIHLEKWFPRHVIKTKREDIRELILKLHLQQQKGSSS
The assay is classed as functional.

Assay [28] deals with T3, Sentrin-specific protease 8 (Homo sapiens, UniProt Q96LD8).
T3 sequence (Q96LD8 whole entry): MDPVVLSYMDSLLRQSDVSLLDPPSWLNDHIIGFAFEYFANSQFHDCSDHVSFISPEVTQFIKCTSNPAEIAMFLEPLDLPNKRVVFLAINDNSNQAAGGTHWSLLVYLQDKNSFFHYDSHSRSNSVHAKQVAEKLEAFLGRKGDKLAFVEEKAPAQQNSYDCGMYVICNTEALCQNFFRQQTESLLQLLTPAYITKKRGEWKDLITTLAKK
In kind it is functional.

For assay [29], the target named is T4, Sentrin-specific protease 6 (Homo sapiens, UniProt Q9GZR1).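 Note: Luminescence-based dose-response confirmatory assay of SENP6 inhibition, following up an ultra-high-throughput screen.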
T4 sequence (Q9GZR1 whole entry): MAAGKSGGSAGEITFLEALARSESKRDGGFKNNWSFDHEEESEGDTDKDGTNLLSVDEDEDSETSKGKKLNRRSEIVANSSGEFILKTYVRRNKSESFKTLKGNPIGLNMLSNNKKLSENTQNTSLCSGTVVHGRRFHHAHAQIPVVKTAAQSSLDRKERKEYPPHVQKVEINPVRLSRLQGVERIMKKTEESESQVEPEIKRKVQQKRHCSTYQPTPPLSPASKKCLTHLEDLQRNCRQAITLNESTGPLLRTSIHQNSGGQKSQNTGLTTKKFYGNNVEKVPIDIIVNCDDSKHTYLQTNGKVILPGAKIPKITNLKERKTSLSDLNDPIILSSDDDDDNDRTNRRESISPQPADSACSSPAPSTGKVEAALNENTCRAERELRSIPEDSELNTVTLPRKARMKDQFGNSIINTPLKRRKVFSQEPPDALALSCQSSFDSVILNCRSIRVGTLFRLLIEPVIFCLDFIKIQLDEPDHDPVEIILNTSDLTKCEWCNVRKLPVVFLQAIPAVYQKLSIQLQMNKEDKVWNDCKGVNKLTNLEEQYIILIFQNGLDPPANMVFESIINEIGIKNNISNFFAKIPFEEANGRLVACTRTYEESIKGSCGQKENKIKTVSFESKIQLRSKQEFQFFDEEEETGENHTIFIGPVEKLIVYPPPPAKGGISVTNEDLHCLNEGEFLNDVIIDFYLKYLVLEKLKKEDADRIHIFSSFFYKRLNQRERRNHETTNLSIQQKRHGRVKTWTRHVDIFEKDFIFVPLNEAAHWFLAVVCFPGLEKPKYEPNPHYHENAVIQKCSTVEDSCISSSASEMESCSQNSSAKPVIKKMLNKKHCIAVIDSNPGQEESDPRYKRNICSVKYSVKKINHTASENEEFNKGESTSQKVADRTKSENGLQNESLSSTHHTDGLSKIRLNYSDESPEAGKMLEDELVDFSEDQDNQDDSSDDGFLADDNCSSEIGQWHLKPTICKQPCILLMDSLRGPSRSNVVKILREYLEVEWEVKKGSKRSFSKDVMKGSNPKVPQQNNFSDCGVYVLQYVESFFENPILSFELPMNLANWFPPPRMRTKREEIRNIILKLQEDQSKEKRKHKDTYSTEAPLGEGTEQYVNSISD
In kind it is functional.

Assay [30] can be described thus: IC50 of Artemis nuclease activity blockers – biochemical, fluorescence intensity, dose response (AID 720701).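 Note: Artemis endonuclease enzyme.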 In kind it is functional.

Sequence of Paired box protein Pax-8 (Q06710 whole entry): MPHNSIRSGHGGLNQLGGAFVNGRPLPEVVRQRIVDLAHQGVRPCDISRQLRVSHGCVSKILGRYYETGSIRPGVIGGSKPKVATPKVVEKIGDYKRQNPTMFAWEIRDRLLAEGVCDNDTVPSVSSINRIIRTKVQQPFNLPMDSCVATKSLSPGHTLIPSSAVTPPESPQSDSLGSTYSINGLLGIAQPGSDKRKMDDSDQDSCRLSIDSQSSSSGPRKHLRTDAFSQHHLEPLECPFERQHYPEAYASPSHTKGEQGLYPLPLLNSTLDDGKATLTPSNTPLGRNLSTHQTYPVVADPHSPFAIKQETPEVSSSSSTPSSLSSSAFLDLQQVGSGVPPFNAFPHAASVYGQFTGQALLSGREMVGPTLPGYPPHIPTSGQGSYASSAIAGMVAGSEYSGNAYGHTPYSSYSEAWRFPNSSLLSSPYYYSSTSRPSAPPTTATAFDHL

Take `COc1ccc(NC2=C(N3CCCCC3)C(=O)c3ccccc3C2=O)cc1`: the AC50 in assay [1] is > 70 µM (inactive); in assay [2], 11.2 µM (active); in assay [3], 40.9 µM (active); in assay [4], 3.73 µM (active); in assay [5], 11.2 µM (active); in [6] it was 2.48 µM (active). Besides, the AC50 was 12 µM (active) in assay [7], 42.4 µM (active) in assay [8] and 26.8 µM (active) in assay [9].

With `C[C@@H]1CCCCO[C@H](CN(C)C(=O)c2ccccc2)[C@H](C)CN([C@@H](C)CO)C(=O)c2cc(NC(=O)Nc3ccc(C(F)(F)F)cc3)ccc2O1`, the AC50 in assay [10] is 19.9 µM (active); on Paired box protein Pax-8, 6.57 µM (active); in assay [11], 34.4 µM (active); in [12] it was 64.1 µM (active).

Turning to `N#C[C@@H]1[C@H](c2ccc(C#Cc3ccc(F)cc3)cc2)[C@@H](CO)N1C(=O)Nc1ccc(F)cc1`, the AC50 was 27.9 µM (active) in assay [13]; 30.9 µM (active) in [10]; 23.1 µM (active) in assay [14]; 4.38 µM (active) at Paired box protein Pax-8; 33.8 µM (active) in [15]; 24 µM (active) in [16]. The AC50 in assay [17] is 14.3 µM (active); in assay [18] it was > 70 µM (inactive); in assay [19] it was 15.8 µM (active); in [20], 5.19 µM (active); in assay [21], 12.9 µM (active); in assay [22] it was 16.8 µM (active). Also, the concentration at half-maximal activity (AC50) was 22.2 µM (active) in assay [11]; > 70 µM (inactive) in assay [23]; 34.4 µM (active) in assay [24]; 35.9 µM (active) in [25]; 44.7 µM (active) in [26].

For `Brc1ccc(-c2cn3nc4c(nc3n2)CCCC4)cc1`, the 50% inhibitory concentration (IC50) was 17.4 µM (active) at Caspase-3; 21.2 µM (active) in assay [27]; 17.7 µM (active) in assay [28]; 12.3 µM (active) in [29]; > 20 µM (inactive) in [30].

What is called AC50 is the concentration giving half of the maximal activity seen. Usually IC50 stands for the midpoint of a concentration-inhibition curve.
